# Where “and” joins values, the source holds several entries; their conditions need not be identical. Equal entries are not always repeated.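 Grown in 96-well plates, cells were treated for 48 hours with each compound at five concentrations. Insufficient inhibition: endpoint recorded as highest concentration tested. GI50: concentration for 50% inhibition of growth. TGI: total growth inhibition.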
# What was measured:
# Experiment in all cases: DTP human tumour cell line panel, 48 h
# [1] = system: OVCAR-4 ovarian
# [2] = system: HT29 colon
# [3] = system: A498 renal
# [4] = system: M19-MEL melanoma
# [5] = system: MOLT-4 leukemia
# [6] = system: DMS 273 small cell lung
# [7] = system: M14 melanoma
# [8] = system: U251 CNS
# [9] = system: SK-MEL-5 melanoma
# [10] = system: RXF 393 renal
Structure (SMILES),TGI [1],TGI [2],TGI [3],TGI [4],TGI [5],TGI [6],TGI [7],TGI [8],TGI [9],TGI [10],GI50 [1],GI50 [2],GI50 [4],GI50 [5],GI50 [10],GI50 [6],GI50 [7],GI50 [8],GI50 [9],GI50 [3]
O=C(O)CCNS(=O)(=O)c1ccc2ccccc2c1,> 100 µM,> 100 µM,> 100 µM,> 100 µM,> 100 µM,> 100 µM,> 100 µM,> 100 µM,> 100 µM,,,,,,,,,,,
Cc1ccc(NC(=O)C(=O)CC(=O)c2c(C)n([O-])c3ccccc3[n+]2=O)cc1C,> 100 µM,> 100 µM,> 100 µM,> 100 µM,,> 100 µM,> 100 µM,> 100 µM,> 100 µM,> 100 µM,,,,,,,,,,
O=C(C(=O)n1ncc(Cl)c(Cl)c1=O)n1ncc(Cl)c(Cl)c1=O,36.1 µM,34 µM,> 100 µM,48.7 µM,43.7 µM,44.5 µM,> 68.7 µM,> 100 µM,97.2 µM,,,,,,,,,,,
Cc1ccc(N=C[N-]c2ccc(C)cc2)cc1.Cc1ccc(N=C[N-]c2ccc(C)cc2)cc1.O=C([O-])C(F)(F)F.O=C([O-])C(F)(F)F.[OH3+].[OH3+].[Rh+2].[Rh+2],> 100 µM,42.1 µM,,89.4 µM,42.7 µM,> 100 µM,70.3 µM,72.3 µM,> 100 µM,33.1 µM,44.6 µM,19.4 µM,33.3 µM,19 µM,15.1 µM,80.2 µM,26.2 µM,25.8 µM,30.7 µM,
Cc1cc(-c2c(F)cc3c4nn([C@H]5CC[C@@H](N(C)C)CC5)c(=O)c-4cn(C4CC4)c3c2F)cc(C)n1,,1.1 µM,0.0558 µM and 0.471 µM,0.507 µM and 1.59 µM,,0.0372 µM and 0.172 µM,,0.814 µM,0.982 µM,1.39 µM,0.316 µM,,0.247 µM,0.002 µM,,0.03 µM,0.0539 µM,,,0.141 µM
CN(C)CC1CC/C(=C\c2ccc3c(c2)OCO3)C1=O (stereo not given),18.9 µM,59 µM,52.1 µM,35.5 µM,13.8 µM,30.9 µM,15 µM,36.1 µM,28 µM,29.1 µM,,,,,,,,,,
COc1ccc2nc(C(=O)c3ccccc3)c(C)cc2c1,> 100 µM,11 µM,10.3 µM,> 37.7 µM,> 100 µM,63.5 µM,13.4 µM,10.8 µM,12.3 µM,17.3 µM,,,,,,,,,,
Cc1ccc2nc(NC(=O)C(=O)C(C#N)c3ccc(Cl)cc3)sc2c1 (stereo not given),> 50 µM,> 50 µM,,> 50 µM,,> 50 µM,> 50 µM,> 50 µM,,> 50 µM,,,,,,,,,,
NC1c2ccccc2Nc2ccccc21,,20.4 µM,22.8 µM,13.9 µM,8.1 µM,25.7 µM,15.4 µM,,17.1 µM,15.9 µM,,,,,,,,,,
COc1ccc2oc3c(OC)c(OC)c(OC)cc3c(=O)c2c1,> 100 µM,> 100 µM,> 100 µM,> 100 µM,> 100 µM,> 100 µM,> 100 µM,> 100 µM,> 100 µM,84.4 µM,,,,,,,,,,
CCC[CH2][Sn]([CH2]CCC)([S]C#N)[S]C#N,2.74 µM,8.51 µM,,5.04 µM,3.23 µM,4.21 µM,3.48 µM,2.04 µM,1.76 µM,1.33 µM,1.34 µM,2.77 µM,0.909 µM,0.462 µM,0.342 µM,1.63 µM,1.49 µM,0.768 µM,0.483 µM,
CCCCCC(=O)Nc1nc2nc[nH]c2c(=O)[nH]1,> 100 µM,> 100 µM,> 100 µM,> 100 µM,> 100 µM,> 100 µM,> 100 µM,> 100 µM,> 100 µM,> 100 µM,,,,,,,,,,
C/C(CN1C(=O)c2ccccc2C1=O)=N\NS(=O)(=O)c1cccc(C(=O)O)c1,> 100 µM,> 100 µM,> 100 µM,> 100 µM,> 100 µM,> 100 µM,> 100 µM,> 100 µM,> 100 µM,,,,,,,,,,,
COCCOc1cc(C)cc(/C=C(C)/C=C/C2=C(C)CCCC2(C)C)n1,> 100 µM,> 100 µM,> 100 µM,> 100 µM,> 100 µM,> 100 µM,> 100 µM,> 100 µM,39.8 µM,> 100 µM,,,,,,,,,,
CC1=C(C(=O)Nc2ccccc2)C(c2ccccc2Cl)C(C(=O)Nc2ccccc2)=C(C)N1,> 100 µM,37.9 µM,58.5 µM,36 µM,60.1 µM,41.9 µM,33.3 µM,35.8 µM,29.8 µM,,,,,,,,,,,
COc1ccc(-c2cc3c(C)nc(N)nc3n(C3CCC(OCCO)CC3)c2=O)cn1 (stereo not given),2.06 µM and 0.841 µM,1.83 µM and 0.747 µM,0.0925 µM,,> 10 µM and 7.35 µM,,2.69 µM and 1.05 µM,2.75 µM and 1.9 µM,0.543 µM and 0.65 µM,0.289 µM and 0.309 µM,0.14 µM and 0.114 µM,0.0781 µM and 0.0809 µM,,0.0677 µM and 0.0626 µM,0.0403 µM and 0.0467 µM,,0.099 µM and 0.0686 µM,0.181 µM and 0.162 µM,0.144 µM and 0.103 µM,0.0211 µM
CC1OC(=O)C(O)=C1O (stereo not given),> 100 µM,> 100 µM,,> 100 µM,> 100 µM,> 100 µM,> 100 µM,> 100 µM,> 100 µM,> 100 µM,,,,,,,,,,
O=[N+]([O-])c1ccc(Cl)c(CNc2ncnc3c2ncn3C2CCCCO2)c1 (stereo not given),> 100 µM,> 100 µM,43.9 µM,,88.2 µM,,> 100 µM,> 100 µM,52.3 µM,42.6 µM,,,,,,,,,,
COc1ccc(C2=Nc3ccccc3SC(C)C2)cc1OC (stereo not given),57.4 µM,37.2 µM,39.8 µM,,34.8 µM,34.8 µM,33 µM,30.9 µM,37 µM,,,,,,,,,,,
Cc1ccc([N+](=O)[O-])c2c(NCCNC(=O)c3cc(C(=O)NCCNc4ccnc5c(C)ccc([N+](=O)[O-])c45)n(C)n3)ccnc12,> 73.3 µM,> 100 µM,> 100 µM,,> 46.4 µM,,> 100 µM,> 100 µM,58 µM,> 100 µM,,,,,,,,,,

Structure (SMILES),TGI [1],TGI [2],TGI [3],TGI [4],TGI [5],TGI [6],TGI [7],TGI [8],TGI [9],TGI [10],GI50 [1],GI50 [2],GI50 [4],GI50 [5],GI50 [10],GI50 [6],GI50 [7],GI50 [8],GI50 [9],GI50 [3]
COc1ccccc1NC(=O)C1=C(C)NC(C)=C(C(=O)Nc2ccccc2OC)C1/C=C/c1ccccc1,> 100 µM,> 100 µM,> 100 µM,> 100 µM,> 100 µM,> 100 µM,> 100 µM,> 100 µM,> 100 µM,,,,,,,,,,,
Cc1cccc(C(=O)O)c1C(=O)c1cccc2ccccc12,> 100 µM,> 100 µM,> 100 µM,> 100 µM,> 100 µM,> 100 µM,> 100 µM,> 100 µM,> 100 µM,> 100 µM,,,,,,,,,,
CCOC(=O)/C(=C/c1cccc(Cl)c1)N(CC)CC,> 100 µM,> 100 µM,> 100 µM,> 100 µM,> 100 µM,,> 100 µM,> 100 µM,> 100 µM,,,,,,,,,,,
CCOC(=O)c1cc(-c2ccc(-c3cc(C(=O)OCC)c(C#N)c(N)c3C#N)cc2)c(C#N)c(N)c1C#N,> 100 µM,> 100 µM,,> 100 µM,> 100 µM,> 100 µM,> 100 µM,> 100 µM,,> 100 µM,,,,,,,,,,
CCCCCCSSC(=S)N(CC)CC,28.8 µM,38.8 µM,> 100 µM,,44.5 µM,,47.6 µM,30.6 µM,31.6 µM,32.9 µM,15.1 µM,20.5 µM,,17.7 µM,17.1 µM,,19.2 µM,14.2 µM,14.6 µM,70 µM
COc1cc(/C=C/c2ccc(O)c(OC)c2)cc(OC)c1,> 100 µM,85.8 µM,84.4 µM,,> 100 µM,,70.8 µM,> 100 µM,77.7 µM,> 100 µM,,,,,,,,,,
O=C(NCC(F)(F)F)Nc1cccc(-c2cnc3cc(-c4ccc(F)cc4)ccn23)c1,> 100 µM,1.23 µM,2.47 µM,,> 29 µM,,> 100 µM,20.8 µM,14 µM,6.36 µM,1.66 µM,0.314 µM,,0.681 µM,1.13 µM,,1.15 µM,0.622 µM,0.549 µM,0.29 µM
CCCCC#Cc1c(I)n(C)c(=O)[nH]c1=O,3.15 µM,5.08 µM,32.7 µM,,13.9 µM,,4.36 µM,6.85 µM,30 µM,5.91 µM,1.76 µM,2.27 µM,,2.73 µM,2.6 µM,,2.13 µM,2.42 µM,16.4 µM,18.7 µM
CCN(CC)CC1CCCCN1CC(=O)N1CC(C)C(=O)Nc2ccccc21 (stereo not given),> 100 µM,> 100 µM,> 100 µM,> 100 µM,> 100 µM,> 100 µM,> 100 µM,> 100 µM,> 100 µM,,,,,,,,,,,
O=C(O)/C(Cc1ccnc2ccccc12)=N\O,> 100 µM,> 100 µM,> 100 µM,,> 100 µM,,> 100 µM,> 100 µM,> 100 µM,> 100 µM,,,,,,,,,,
O=C1CSC(c2ccccc2Cl)N1c1nnc(Cn2cnnc2)o1 (stereo not given),> 100 µM,13.9 µM,52.7 µM,,26.1 µM,,24.7 µM,18.9 µM,21.2 µM,79.4 µM,23.9 µM,3.35 µM,,7.27 µM,24.3 µM,,6.06 µM,4.58 µM,7.81 µM,12.3 µM
C#Cc1cccc(Nc2nc(Cl)nc3cc(NC(=O)CCl)ccc23)c1,2.69 µM,4.43 µM,6.32 µM,,1.64 µM,,2.64 µM,1.14 µM,3.36 µM,3.38 µM,0.847 µM,0.766 µM,,0.564 µM,0.857 µM,,0.764 µM,0.526 µM,1.04 µM,3.13 µM
CCOC(=O)C(Cc1ccc(N(CCCl)CCCl)cc1)NC(=O)C(Cc1ccccc1)NC=O (stereo not given),0.123 µM,0.289 µM,0.384 µM,,0.161 µM,,0.31 µM,0.499 µM,0.355 µM,0.226 µM,,,,,,,,,,
Cn1cc(C2=C(c3c[nH]c4ccccc34)C(=O)NC2=O)c2ccccc21,> 25 µM,> 25 µM,0.755 µM,,,,> 25 µM,> 25 µM,3.1 µM,1.96 µM,> 5.06 µM,0.968 µM,,0.458 µM,0.198 µM,,1.24 µM,1.36 µM,0.859 µM,0.169 µM
CCC(C)CC(C)CC(C)/C=C(\C)C1=C(C)CC(C)(O)O1 (stereo not given),,> 100 µM,> 100 µM,> 100 µM,> 100 µM,> 100 µM,> 100 µM,> 100 µM,> 100 µM,> 100 µM,,,,,,,,,,
CC(C)c1cccc(C(C)C)c1N1C(=O)C(=O)C(c2nc3ccccc3o2)C(=O)C1=O,> 100 µM,> 100 µM,> 100 µM,> 100 µM,,> 100 µM,> 100 µM,> 100 µM,> 100 µM,> 100 µM,,,,,,,,,,
NC(=O)c1ccc(Oc2nccc(-c3c(-c4ccc(F)cc4)ncn3C3CCNCC3)n2)cc1,> 25 µM,> 25 µM,> 25 µM,,> 25 µM,,> 25 µM,> 25 µM,> 25 µM,> 25 µM,> 25 µM,> 25 µM,,> 25 µM,> 25 µM,,> 25 µM,> 25 µM,> 25 µM,> 18.2 µM
O=C1/C(=C/c2ccc(F)cc2)CN(C(=O)CCN2CCC(=NO)CC2)C/C1=C\c1ccc(F)cc1,5.14 µM,2.61 µM,2.63 µM,,7.97 µM,,3.69 µM,2.09 µM,3.26 µM,3.18 µM,2.34 µM,0.845 µM,,0.699 µM,1.64 µM,,1.17 µM,0.63 µM,1.73 µM,1.31 µM
CC(C)c1cc(C(C)C)c(S(=O)(=O)N=[N+]=[N-])c(C(C)C)c1,> 100 µM,> 100 µM,,> 100 µM,> 100 µM,> 100 µM,> 100 µM,> 100 µM,> 100 µM,> 100 µM,,,,,,,,,,
